From ChEMBL document CHEMBL1649420, “Identifying chelators for metalloprotein inhibitors using a fragment-based approach” (J Med Chem, 2011)

Legend:
[1] = biological target: T1, Interstitial collagenase (Homo sapiens) (UniProt P03956); conditions: at 1 mM;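 further: recombinant human enzyme, with inhibition measured after 30 min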
T1 sequence (whole entry): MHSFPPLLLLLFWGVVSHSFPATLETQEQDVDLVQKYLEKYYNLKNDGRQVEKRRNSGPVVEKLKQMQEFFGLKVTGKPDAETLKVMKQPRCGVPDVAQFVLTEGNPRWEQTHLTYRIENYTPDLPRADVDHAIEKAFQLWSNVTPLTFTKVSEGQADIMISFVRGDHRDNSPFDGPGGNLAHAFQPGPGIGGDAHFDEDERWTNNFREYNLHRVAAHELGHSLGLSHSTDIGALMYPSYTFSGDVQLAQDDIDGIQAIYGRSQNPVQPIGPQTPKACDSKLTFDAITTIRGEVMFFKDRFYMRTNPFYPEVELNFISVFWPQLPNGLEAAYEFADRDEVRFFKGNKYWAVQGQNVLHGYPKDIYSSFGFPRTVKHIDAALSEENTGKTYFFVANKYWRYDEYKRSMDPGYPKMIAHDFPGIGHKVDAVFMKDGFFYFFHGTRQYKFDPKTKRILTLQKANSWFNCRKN

[2] = biological target: T2, Tyrosinase (Agaricus bisporus) (UniProt O42713); conditions: at 1 mM;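 further: inhibition measured at 10 min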
T2 sequence (whole entry): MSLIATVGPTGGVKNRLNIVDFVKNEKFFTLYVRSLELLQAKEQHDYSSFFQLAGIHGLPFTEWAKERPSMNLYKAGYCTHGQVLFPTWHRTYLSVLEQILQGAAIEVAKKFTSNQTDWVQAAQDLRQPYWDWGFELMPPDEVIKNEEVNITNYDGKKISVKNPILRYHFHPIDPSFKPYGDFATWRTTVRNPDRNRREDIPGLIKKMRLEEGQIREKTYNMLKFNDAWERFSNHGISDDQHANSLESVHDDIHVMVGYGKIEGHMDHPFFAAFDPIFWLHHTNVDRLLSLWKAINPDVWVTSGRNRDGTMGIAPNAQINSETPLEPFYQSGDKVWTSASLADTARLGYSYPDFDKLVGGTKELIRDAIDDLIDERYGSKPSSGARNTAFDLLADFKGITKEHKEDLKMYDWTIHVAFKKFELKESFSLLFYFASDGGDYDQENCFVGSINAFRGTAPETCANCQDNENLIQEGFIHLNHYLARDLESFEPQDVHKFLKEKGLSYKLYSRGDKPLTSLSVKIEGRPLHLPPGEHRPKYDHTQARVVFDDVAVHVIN

[3] = biological target: Matrix metalloproteinase-9 (Homo sapiens) (UniProt P14780); conditions: at 1 mM;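 further: recombinant human MMP9, activity read after 30 min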
Chain of Matrix metalloproteinase-9 (Homo sapiens) (P14780 whole entry): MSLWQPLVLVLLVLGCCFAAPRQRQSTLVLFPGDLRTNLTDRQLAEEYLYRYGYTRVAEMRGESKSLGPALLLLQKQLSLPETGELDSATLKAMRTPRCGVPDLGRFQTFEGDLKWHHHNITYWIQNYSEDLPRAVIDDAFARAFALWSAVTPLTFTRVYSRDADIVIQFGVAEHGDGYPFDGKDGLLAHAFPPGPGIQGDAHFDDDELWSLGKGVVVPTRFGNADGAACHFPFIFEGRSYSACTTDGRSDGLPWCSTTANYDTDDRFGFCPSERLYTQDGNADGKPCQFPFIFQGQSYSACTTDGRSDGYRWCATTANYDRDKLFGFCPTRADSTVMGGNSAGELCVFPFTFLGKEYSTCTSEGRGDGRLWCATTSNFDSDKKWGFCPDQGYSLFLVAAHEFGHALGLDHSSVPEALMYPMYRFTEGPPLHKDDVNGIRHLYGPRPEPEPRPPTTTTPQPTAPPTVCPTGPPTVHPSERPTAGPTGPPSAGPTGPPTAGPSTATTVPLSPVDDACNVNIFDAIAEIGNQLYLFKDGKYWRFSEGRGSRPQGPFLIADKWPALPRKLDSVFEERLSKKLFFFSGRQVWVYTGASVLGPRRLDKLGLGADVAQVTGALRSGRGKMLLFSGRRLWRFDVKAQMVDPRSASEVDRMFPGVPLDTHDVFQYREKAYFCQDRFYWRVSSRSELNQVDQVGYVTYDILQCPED

[4] = biological target: T3, Polyunsaturated fatty acid 5-lipoxygenase (Homo sapiens) (UniProt P09917); test: Inhibition of human recombinant 5-lipoxygenase at 1 mM after 10 mins by fluorescence assay
T3 sequence (whole entry): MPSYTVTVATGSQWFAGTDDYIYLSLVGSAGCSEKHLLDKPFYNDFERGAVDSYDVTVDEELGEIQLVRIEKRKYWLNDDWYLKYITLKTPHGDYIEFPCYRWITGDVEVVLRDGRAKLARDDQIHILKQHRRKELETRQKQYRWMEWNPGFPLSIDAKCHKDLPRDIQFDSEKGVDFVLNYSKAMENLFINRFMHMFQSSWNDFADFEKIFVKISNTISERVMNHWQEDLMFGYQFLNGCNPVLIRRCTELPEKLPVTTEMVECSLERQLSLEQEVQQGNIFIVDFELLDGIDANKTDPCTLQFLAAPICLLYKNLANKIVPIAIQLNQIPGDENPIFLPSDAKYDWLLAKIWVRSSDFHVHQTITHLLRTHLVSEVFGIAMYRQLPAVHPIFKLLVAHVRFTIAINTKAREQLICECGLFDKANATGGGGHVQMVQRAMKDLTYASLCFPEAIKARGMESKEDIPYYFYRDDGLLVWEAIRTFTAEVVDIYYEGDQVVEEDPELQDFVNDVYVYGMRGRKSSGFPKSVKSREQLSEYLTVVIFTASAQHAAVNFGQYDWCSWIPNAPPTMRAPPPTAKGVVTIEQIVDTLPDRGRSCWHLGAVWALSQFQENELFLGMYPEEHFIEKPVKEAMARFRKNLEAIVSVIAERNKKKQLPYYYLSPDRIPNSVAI

[5] = biological target: Stromelysin-1 (Homo sapiens) (UniProt P08254); conditions: at 1 mM;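 further: recombinant enzyme, inhibition read after a 30 min incubation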
Chain of Stromelysin-1 (Homo sapiens) (P08254 100-477 limits assumed): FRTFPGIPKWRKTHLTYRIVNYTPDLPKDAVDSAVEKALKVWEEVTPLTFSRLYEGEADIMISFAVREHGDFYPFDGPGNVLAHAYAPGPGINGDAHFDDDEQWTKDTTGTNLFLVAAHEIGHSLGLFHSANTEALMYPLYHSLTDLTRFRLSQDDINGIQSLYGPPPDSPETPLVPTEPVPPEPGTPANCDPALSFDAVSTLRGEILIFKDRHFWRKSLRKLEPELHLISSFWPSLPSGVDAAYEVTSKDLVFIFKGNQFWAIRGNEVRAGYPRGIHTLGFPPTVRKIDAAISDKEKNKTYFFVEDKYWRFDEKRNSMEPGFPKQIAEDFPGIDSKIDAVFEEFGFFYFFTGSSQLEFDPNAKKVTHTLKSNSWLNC

[6] = biological target: Neutrophil collagenase (Homo sapiens) (UniProt P22894); conditions: at 1 mM;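 further: recombinant human MMP8 enzyme, percent inhibition read after 30 min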
Chain of Neutrophil collagenase (Homo sapiens) (P22894 101-467 limits assumed): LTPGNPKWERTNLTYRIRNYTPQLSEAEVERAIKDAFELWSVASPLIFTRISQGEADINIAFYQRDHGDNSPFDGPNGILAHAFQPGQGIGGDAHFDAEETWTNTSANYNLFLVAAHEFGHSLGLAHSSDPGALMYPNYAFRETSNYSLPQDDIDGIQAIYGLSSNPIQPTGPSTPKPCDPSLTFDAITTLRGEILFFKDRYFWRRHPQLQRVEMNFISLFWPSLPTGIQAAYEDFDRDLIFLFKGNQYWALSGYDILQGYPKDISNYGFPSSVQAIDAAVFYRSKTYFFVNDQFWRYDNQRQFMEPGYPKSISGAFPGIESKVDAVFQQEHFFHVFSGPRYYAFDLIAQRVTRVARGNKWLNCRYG

[7] = biological target: T4, Nitric oxide synthase, inducible (Mus musculus) (UniProt P29477); conditions: at 1 mM;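 further: recombinant enzyme, activity read out colorimetrically after 40 min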
T4 sequence (whole entry): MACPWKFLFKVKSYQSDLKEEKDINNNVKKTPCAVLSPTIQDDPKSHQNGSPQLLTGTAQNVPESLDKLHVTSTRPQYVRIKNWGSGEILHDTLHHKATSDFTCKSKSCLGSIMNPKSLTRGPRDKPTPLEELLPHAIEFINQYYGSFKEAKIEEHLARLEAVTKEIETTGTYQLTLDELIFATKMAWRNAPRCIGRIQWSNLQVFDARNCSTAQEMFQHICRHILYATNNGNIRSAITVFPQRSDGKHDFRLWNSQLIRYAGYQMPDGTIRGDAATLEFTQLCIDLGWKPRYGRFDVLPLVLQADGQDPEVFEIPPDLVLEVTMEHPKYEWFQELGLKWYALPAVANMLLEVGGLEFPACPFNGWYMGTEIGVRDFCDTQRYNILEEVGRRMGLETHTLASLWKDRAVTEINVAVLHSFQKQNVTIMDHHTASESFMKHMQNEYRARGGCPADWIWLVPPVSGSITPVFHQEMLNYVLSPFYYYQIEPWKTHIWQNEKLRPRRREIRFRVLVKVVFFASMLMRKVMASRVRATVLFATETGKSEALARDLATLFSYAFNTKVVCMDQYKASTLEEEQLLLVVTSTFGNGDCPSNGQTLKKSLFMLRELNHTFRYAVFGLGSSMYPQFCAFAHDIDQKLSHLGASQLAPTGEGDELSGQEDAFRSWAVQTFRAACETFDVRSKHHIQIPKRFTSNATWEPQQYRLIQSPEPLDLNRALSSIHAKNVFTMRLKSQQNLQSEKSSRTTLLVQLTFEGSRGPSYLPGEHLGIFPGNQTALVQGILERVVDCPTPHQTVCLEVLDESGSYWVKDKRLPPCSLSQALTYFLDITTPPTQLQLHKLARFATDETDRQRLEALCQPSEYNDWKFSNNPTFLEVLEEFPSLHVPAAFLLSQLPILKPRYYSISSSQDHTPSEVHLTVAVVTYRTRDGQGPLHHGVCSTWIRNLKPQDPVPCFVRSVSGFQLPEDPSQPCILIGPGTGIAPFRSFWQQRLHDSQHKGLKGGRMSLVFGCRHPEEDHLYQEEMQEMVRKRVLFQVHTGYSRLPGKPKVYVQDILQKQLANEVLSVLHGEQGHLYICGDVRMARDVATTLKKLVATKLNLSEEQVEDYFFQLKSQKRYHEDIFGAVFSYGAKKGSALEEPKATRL

Row | Compound | inhibition [1] [%] | inhibition [2] [%] | inhibition [3] [%] | inhibition [4] [%] | inhibition [5] [%] | inhibition [6] [%] | inhibition [7] [%]
1 | O=c1cc(CCl)occ1O | 67 | 94 | 42 | 87 | 68 | 59 | 63
2 | Cc1cc(O)nc(C)n1 | 10 | -10 | 1 | 26 | 6 | 11 | 8
3 | CCCCc1ccc(C(=O)O)nc1 | 58 | 75 | 18 | 23 | 80 | 47 | 10
4 | O=c1ccocc1O | 48 | 38 | 45 | 81 | 35 | 43 | 22
5 | Oc1ncccn1 | 100 | 92 | 51 | 8 | 49 | 100 | 6
6 | O=C(O)c1ccc(F)cc1O | 14 | 97 | 5 | 31 | -2 | 4 | 1
7 | Cc1cccc(C(=O)O)c1O | 10 | 96 | 14 | 22 | 13 | 18 | 13
8 | Cc1ccc(O)c(C(=O)O)c1 | 28 | 98 | 2 | 17 | 76 | 26 | 21
9 | [O-][n+]1cccc2cccc(O)c21 | 70 | 29 | 67 | 66 | 81 | 64 | 28
10 | Cc1occ(O)c(=O)c1C(=O)O | 60 | 96 | 51 | 80 | 80 | 55 | 17
11 | O=C(O)c1ccc(C(=O)O)nc1 | 0 | 98 | -2 | 31 | 91 | -1 | -4
12 | Cc1nc(O)nc(O)c1C | 11 | 32 | -4 | 33 | 10 | 2 | 46
13 | O=c1occcc1O | 74 | 77 | 70 | 77 | 72 | 68 | 42
14 | Cc1cc(=O)c(O)c(CCl)o1 | 53 | 96 | 41 | 72 | 59 | 47 | 6
15 | C1CNCCNCCN1 | 105 | 68 | 100 | 25 | 48 | 104 | 0
16 | O=C(O)c1cccc(C(=O)O)n1 | 7 | 99 | -7 | 31 | 54 | 17 | 20
17 | Cc1cc(=O)c(O)co1 | 37 | 86 | 31 | 80 | 29 | 31 | -3
18 | O=C(O)c1ccccc1O | -1 | 97 | 12 | 20 | -2 | 14 | 13
19 | c1ccc(CNCc2ccccn2)nc1 | 73 | 69 | 84 | 29 | 93 | 100 | -2
20 | O=C(O)c1cccc(O)c1O | 17 | 88 | 11 | 80 | -1 | 10 | 2
21 | Cc1cc(O)nc(O)n1 | 13 | -4 | 1 | 24 | 7 | 11 | 8
22 | O=C(O)c1cccc(Br)n1 | 11 | 90 | 4 | 29 | 18 | 1 | 17
23 | Cc1ccc(S(N)(=O)=O)cc1 | 11 | 70 | -7 | 25 | -5 | 9 | -5
24 | O=c1cccccc1O [TROPOLONE] | 100 | 90 | 91 | -3 | 95 | 100 | 9
25 | O=C(O)c1cccc[n+]1[O-] | 10 | 88 | 8 | 31 | 18 | 21 | -1
